Laboratory results from US10183914B2 (BAYER CROPSCIENCE AKTIENGESELLSCHAFT, priority 2014, dated 2019).

Columns and labels:
Veronica persica = assay: Pre-emergence herbicidal effect; format: in vivo; settings: 3 weeks
Excerpt: (§1) Seeds of monocotyledonous and dicotyledonous weed plants and crop plants are laid out in wood-fiber pots in sandy loam and covered with soil. The compounds of the invention, formulated in the form of wettable powders (WP) or as emulsion concentrates (EC), are then applied to the surface of the covering soil as aqueous suspension or emulsion at a water application rate equating to 600 to 800 L/ha with addition of 0.2% wetting agent.
(§2) After the treatment, the pots are placed in a greenhouse and kept under good growth conditions for the trial plants. The damage to the trial plants is scored visually after a trial duration of 3 weeks by comparison with untreated controls (herbicidal activity in percent (%): 100% efficacy=the plants have died, 0% efficacy=like control plants).

Echinochloa crus-galli = assay: Pre-emergence herbicidal effect; format: in vivo; settings: 3 weeks
Excerpt: as §1, §2

Amaranthus retroflexus = assay: Pre-emergence herbicidal effect; format: in vivo; settings: 3 weeks
Excerpt: as §1, §2

Setaria viridis = assay: Pre-emergence herbicidal effect; format: in vivo; settings: 320 g/ha, 3 weeks
Excerpt: as §1, §2

Viola tricolor = assay: Pre-emergence herbicidal effect; format: in vivo; settings: 3 weeks
Excerpt: as §1, §2

Matricaria inodora = assay: Pre-emergence herbicidal effect; format: in vivo; settings: 3 weeks
Excerpt: as §1, §2

Stellaria media = assay: Pre-emergence herbicidal effect; format: in vivo; settings: 3 weeks
Excerpt: as §1, §2

[1] = tested on: Triticum aestivum (spring); assay: Pre-emergence herbicidal effect and crop plant compatibility; format: in vivo; settings: 3 weeks
Excerpt: as §1, §2

Zea mays = assay: as above; format: in vivo; settings: 3 weeks
Excerpt: as §1, §2

Oryza sativa = assay: as above; format: in vivo; settings: 3 weeks
Excerpt: as §1, §2

[2] = logp (HCOOH), physicochemical characterization; settings: for chromatographic logP: HCOOH (formic acid)
Polygonum convolvulus = assay: Pre-emergence herbicidal effect; format: in vivo; settings: 3 weeks
Excerpt: as §1, §2

[3] = tested on: Triticum aestivum (spring); assay: Post-emergence herbicidal effect and crop plant compatibility; format: in vivo; settings: 320 g/ha, visual scoring after about 3 weeks
Experimental: Seeds of monocotyledonous and dicotyledonous weed and crop plants are laid out in sandy loam in wood-fiber pots, covered with soil and cultivated in a greenhouse under good growth conditions. 2 to 3 weeks after sowing, the test plants are treated at the one-leaf stage. The compounds of the invention, formulated in the form of wettable powders (WP) or as emulsion concentrates (EC), are then sprayed onto the green parts of the plants as aqueous suspension or emulsion at a water application rate equating to 600 to 800 L/ha with addition of 0.2% wetting agent. After the trial plants have been left to stand in a greenhouse under optimal growth conditions for about 3 weeks, the efficacy of the formulations is scored visually in comparison to untreated controls (herbicidal action in percent (%): 100% efficacy=the plants have died, 0% efficacy=like control plants).

chromatographic logP [2]	Compound	VERPE herbicidal activity in percent (Veronica persica; 320 g/ha)	ECHCG herbicidal activity in percent (Echinochloa crus-galli; 320 g/ha)	AMARE herbicidal activity in percent (Amaranthus retroflexus; 80 g/ha)	AMARE herbicidal activity in percent (Amaranthus retroflexus; 320 g/ha)	SETVI herbicidal activity in percent (Setaria viridis)	VIOTR herbicidal activity in percent (Viola tricolor; 80 g/ha)	VIOTR herbicidal activity in percent (Viola tricolor; 320 g/ha)	MATIN herbicidal activity in percent (Matricaria inodora; 80 g/ha)	MATIN herbicidal activity in percent (Matricaria inodora; 320 g/ha)	STEME herbicidal activity in percent (Stellaria media; 320 g/ha)	TRZAS herbicidal activity in percent ([1]; 80 g/ha)	TRZAS herbicidal activity in percent ([1]; 320 g/ha)	ZEAMX herbicidal activity in percent (Zea mays; 80 g/ha)	ZEAMX herbicidal activity in percent (Zea mays; 320 g/ha)	ORYSA herbicidal activity in percent (Oryza sativa; 80 g/ha)	VERPE herbicidal activity in percent (Veronica persica; 80 g/ha)	POLCO herbicidal activity in percent (Polygonum convolvulus; 320 g/ha)	logp (HCOOH) [2]	ORYSA herbicidal activity in percent (Oryza sativa; 320 g/ha)	other results
	CC(=O)c1cnc(NC2CCOc3c(C)cc(F)cc32)nc1C (racemic) [1.87]	100%	100%	80%	100%	100%	100%	100%	90%	100%	100%	0%	0%	0%	10%	0%					
2.51	CC(=O)c1cnc(N[C@@H]2CCCc3ccccc32)nc1 [1.3, 1-{2-[(1R)-1,2,3,4-tetrahydronaphthalen-1-ylamino]pyrimidin-5-yl}ethanone]	100%	100%	100%	100%	80%			90%	100%	90%	20%	20%	20%		20%	100%	100%			ECHCG herbicidal activity in percent (Echinochloa crus-galli; 80 g/ha): 80%; POLCO herbicidal activity in percent (Polygonum convolvulus; 80 g/ha): 80%
	CC1CCc2ccccc2C1Nc1ncc2c(n1)CC(C)(C)CC2=O (racemic) [2.95]	100%	80%	100%	100%			100%	90%	90%	100%	0%	0%	0%	0%	0%	100%		oily; logp (HCOOH): 4.02; 1H-NMR (CDCl3, 400 MHZ, δ in ppm): 1.10 (s + d, 9H,	0%	STEME herbicidal activity in percent (Stellaria media; 80 g/ha): 100%
3.03	CC(=O)c1cnc(N[C@@H]2CCCc3ccccc32)nc1C [1.82, 1-{4-methyl-2-[(1R)-1,2,3,4-tetrahydronaphthalen-1-ylamino]pyrimidin-5-yl}ethanone]	100%		90%	90%		100%	100%	90%	90%	100%	0%	0%	0%		0%	100%	80%		3%	post-emergence efficacy TRZAS [3]: 0%
	CC(=O)c1cnc(N[C@@H]2CCc3ccccc32)nc1C [1.89]	100%			100%		90%	100%	100%	100%	80%	0%	0%	0%	0%		80%		solid; logp (HCOOH): 2.80; 1H-NMR (CDCl3, 400 MHZ, δ in ppm: 1.90 (m, 1H, 1H	0%	STEME herbicidal activity in percent (Stellaria media; 80 g/ha): 80%
